# Measured values: ChEMBL document CHEMBL1914376, “Synthesis and in vitro evaluation of 7-methoxy-N-(pent-4-enyl)-1,2,3,4-tetrahydroacridin-9-amine-new tacrine derivate with cholinergic properties” (Bioorg Med Chem Lett, 2011)
# How the values were obtained:
# Cholinesterase = Cholinesterase (Homo sapiens, UniProt P06276)
# Description: Inhibition of human plasmatic BChE after 5 mins using spectrophotometer by Ellman's method
# Acetylcholinesterase [1] = target: T1, Acetylcholinesterase (Homo sapiens, UniProt P22303)
# Description: Inhibition of human recombinant AChE after 5 mins using spectrophotometer by Ellman's method
# Acetylcholinesterase [2] = target: T1, Acetylcholinesterase; assay: Ratio of Tacrine IC50 to compound IC50 for human recombinant AChE
# Acetylcholinesterase [3] = target: T1, Acetylcholinesterase; assay: Ratio of 7-MEOTA IC50 to compound IC50 for human recombinant AChE
# T1 sequence (P22303 whole entry): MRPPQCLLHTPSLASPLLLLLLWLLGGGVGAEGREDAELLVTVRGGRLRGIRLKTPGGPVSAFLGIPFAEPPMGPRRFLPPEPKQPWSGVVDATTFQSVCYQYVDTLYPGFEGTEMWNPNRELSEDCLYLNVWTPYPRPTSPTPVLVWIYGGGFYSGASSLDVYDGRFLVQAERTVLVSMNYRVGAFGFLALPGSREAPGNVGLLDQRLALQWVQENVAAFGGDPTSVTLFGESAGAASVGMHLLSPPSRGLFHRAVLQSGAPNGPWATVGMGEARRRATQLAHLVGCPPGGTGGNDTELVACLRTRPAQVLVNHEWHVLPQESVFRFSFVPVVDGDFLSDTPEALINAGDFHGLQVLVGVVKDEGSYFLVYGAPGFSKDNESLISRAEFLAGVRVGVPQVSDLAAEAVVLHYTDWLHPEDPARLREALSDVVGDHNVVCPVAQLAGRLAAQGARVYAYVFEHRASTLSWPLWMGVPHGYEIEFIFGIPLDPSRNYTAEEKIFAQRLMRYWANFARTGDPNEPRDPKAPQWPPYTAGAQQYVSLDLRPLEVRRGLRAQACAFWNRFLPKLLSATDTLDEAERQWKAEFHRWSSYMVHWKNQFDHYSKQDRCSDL
# Sequence of Cholinesterase (P06276 whole entry): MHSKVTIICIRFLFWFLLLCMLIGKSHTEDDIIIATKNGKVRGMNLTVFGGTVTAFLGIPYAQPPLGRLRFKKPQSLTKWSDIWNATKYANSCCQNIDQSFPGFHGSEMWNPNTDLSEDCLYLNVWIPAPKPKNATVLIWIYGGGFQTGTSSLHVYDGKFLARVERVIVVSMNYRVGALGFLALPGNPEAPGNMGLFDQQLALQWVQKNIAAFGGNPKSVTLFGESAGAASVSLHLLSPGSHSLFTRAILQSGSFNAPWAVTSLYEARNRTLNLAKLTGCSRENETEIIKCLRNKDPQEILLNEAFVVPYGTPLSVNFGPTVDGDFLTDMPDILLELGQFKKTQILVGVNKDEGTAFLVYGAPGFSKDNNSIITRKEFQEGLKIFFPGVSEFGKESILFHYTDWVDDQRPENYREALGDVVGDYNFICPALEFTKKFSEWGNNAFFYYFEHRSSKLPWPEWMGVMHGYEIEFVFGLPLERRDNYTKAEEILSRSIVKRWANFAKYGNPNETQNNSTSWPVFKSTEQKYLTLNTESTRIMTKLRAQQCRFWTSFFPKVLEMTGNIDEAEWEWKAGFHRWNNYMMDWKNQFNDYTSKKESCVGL
SMILES,IC50 (Cholinesterase),IC50 (Acetylcholinesterase [1]),Ratio IC50 (Acetylcholinesterase [2]),Ratio IC50 (Acetylcholinesterase [3])
COc1ccc2nc3c(c(N4CCCCCN(c5c6c(nc7ccc(OC)cc57)CCCC6)CCCCC4)c2c1)CCCC3,656 µM,4.6 µM,,
C=CCCCNc1c2c(nc3ccc(OC)cc13)CCCC2,1.1 µM,2.2 µM,10,5
